Laboratory results as given in patent US20230295130A1, “COMPOUND USEFUL AS CDK7 KINASE INHIBITOR AND USE THEREOF” (TYK MEDICINES, INC., priority 2020, published 2023).
Like-named read-outs stand apart in the source and are kept apart here.

Key:
Assay in all cases: Enzyme activity test, mobility shift assay (Table 1)
Assay type in all cases: biochemical
[1] = target: CDK7/Cyclin H/MAT1 kinase (Homo sapiens (Human), UniProt P50613); details: 2 mM ATP; pre-incubated 0 and 60 minutes
Method: IC50 values of the compounds for CDK7 kinase were detected in Wuxi Biortus Biosciences Co. Ltd.
(§1) The compound powder was dissolved in 100% DMSO to prepare a 10 mM storage solution. The storage solution was further diluted to 0.5 mM as the initial concentration, and continuously diluted 3 times to obtain 10 compound solutions with different concentrations. The compound and enzyme were pre-incubated for 0 minutes and 60 minutes, respectively, using duplicate detection.
(§2) was used as a positive control, and Mobility shift assay method was used to detect CDK kinase (such as CDK7, CDK9, CDK12 and CDK2) activity of the compounds.

CDK2/Cyclin El = CDK2/Cyclin El (Homo sapiens (Human), UniProt P24941); details: 2 mM ATP; read-out: CDK2 kinase IC50
Method: as §1, §2

CDK9/Cyclin Tl = CDK9/Cyclin Tl (Homo sapiens (Human), UniProt P50750); details: 2 mM ATP; read-out: CDK9 kinase IC50
Method: as §1, §2

[2] = target: CDK12 (aa686-1082)/Cyclin K (Homo sapiens (Human), UniProt Q9NYV4)
Method: as §1, with “detection. Compound Staurosporine having a structural formula of” for “detection.”
as §2

[3] = 2 mM ATP, read-out: CDK12 kinase IC50

Chain of CDK9/Cyclin Tl (P50750 whole entry): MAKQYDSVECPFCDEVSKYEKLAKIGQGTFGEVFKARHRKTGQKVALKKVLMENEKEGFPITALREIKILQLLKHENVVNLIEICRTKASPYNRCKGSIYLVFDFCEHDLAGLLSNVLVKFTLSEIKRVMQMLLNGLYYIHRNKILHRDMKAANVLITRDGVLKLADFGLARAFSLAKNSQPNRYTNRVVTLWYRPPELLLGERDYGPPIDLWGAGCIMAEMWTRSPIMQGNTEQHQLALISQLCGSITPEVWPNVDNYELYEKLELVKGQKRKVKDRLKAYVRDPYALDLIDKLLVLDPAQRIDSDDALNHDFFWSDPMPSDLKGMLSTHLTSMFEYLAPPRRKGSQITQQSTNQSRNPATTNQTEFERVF
Chain of CDK9/Cyclin Tl (O60563 whole entry partner): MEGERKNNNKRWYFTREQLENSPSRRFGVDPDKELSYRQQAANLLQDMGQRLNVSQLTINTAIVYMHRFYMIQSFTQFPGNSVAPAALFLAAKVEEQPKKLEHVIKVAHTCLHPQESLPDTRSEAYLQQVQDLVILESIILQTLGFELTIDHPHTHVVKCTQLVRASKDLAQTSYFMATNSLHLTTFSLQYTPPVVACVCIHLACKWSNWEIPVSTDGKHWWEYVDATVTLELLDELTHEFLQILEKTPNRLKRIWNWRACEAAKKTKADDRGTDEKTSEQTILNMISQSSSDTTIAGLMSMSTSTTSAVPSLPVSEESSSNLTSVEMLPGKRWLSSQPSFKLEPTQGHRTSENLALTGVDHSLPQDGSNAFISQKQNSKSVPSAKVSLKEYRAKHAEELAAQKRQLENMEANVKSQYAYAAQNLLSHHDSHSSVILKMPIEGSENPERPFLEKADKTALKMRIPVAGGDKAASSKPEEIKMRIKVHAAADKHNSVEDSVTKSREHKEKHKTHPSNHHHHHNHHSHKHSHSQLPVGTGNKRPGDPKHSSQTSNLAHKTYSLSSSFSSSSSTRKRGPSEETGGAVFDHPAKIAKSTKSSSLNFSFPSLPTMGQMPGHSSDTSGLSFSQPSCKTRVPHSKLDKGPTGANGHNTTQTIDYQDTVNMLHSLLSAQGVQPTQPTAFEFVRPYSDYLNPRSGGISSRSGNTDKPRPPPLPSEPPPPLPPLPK
Chain of CDK7/Cyclin H/MAT1 kinase (P50613 whole entry): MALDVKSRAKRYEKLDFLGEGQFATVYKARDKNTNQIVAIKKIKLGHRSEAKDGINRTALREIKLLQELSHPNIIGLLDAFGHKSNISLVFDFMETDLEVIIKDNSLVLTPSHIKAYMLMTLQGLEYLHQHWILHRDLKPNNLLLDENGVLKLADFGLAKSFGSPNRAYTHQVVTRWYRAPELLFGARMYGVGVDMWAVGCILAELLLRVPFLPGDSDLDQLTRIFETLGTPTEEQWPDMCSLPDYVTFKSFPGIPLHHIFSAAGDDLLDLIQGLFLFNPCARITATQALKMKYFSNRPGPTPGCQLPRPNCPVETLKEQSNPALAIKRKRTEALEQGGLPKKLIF
Chain of CDK7/Cyclin H/MAT1 kinase (P51946 whole entry partner): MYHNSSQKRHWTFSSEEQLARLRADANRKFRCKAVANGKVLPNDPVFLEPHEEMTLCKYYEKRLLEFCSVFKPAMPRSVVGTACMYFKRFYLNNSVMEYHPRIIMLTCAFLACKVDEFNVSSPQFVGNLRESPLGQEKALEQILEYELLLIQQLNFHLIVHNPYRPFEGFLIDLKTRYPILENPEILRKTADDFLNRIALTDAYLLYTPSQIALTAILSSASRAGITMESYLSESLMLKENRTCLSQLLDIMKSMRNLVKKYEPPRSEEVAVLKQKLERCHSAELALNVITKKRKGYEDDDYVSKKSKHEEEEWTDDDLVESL
Chain of CDK7/Cyclin H/MAT1 kinase (P51948 whole entry partner): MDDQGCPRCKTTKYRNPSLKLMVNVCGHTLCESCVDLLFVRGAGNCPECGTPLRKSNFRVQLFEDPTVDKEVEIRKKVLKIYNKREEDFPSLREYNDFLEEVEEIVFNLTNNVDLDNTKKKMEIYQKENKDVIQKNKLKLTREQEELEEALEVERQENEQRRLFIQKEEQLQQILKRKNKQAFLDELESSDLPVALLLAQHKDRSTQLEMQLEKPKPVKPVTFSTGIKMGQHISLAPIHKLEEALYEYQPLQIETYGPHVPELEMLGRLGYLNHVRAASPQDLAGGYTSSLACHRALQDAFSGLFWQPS
Chain of CDK12 (aa686-1082)/Cyclin K (Q9NYV4 686-1082): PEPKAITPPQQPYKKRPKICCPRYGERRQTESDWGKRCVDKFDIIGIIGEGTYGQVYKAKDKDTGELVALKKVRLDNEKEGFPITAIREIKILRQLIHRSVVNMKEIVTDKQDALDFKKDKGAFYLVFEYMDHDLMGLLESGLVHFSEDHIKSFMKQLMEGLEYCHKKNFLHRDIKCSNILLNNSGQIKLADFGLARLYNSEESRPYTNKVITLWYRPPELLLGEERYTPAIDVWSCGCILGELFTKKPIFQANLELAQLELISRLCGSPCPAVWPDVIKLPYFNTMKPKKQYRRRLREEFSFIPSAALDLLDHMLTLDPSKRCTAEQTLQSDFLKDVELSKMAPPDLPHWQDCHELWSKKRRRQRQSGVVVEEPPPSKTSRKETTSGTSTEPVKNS
Chain of CDK12 (aa686-1082)/Cyclin K (O75909 whole entry partner, the tested form may be a part): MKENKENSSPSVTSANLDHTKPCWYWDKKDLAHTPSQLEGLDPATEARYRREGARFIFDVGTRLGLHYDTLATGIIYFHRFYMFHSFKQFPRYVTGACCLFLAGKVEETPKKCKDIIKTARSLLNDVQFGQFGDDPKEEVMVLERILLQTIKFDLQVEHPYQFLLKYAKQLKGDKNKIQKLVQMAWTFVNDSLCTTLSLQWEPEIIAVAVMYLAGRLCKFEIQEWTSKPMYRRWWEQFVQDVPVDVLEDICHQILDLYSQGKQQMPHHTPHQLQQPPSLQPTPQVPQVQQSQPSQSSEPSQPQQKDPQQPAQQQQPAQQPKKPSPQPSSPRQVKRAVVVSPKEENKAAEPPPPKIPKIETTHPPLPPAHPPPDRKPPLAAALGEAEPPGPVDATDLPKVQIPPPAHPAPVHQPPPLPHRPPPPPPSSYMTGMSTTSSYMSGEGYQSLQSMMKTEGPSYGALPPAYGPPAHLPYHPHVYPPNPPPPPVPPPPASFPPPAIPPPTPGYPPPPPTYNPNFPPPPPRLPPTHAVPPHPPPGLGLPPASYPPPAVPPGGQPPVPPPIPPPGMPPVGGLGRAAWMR

Row | Compound | IC50 [1] [nM] | IC50 (CDK2/Cyclin El) [nM] | IC50 (CDK9/Cyclin Tl) [nM] | IC50 [2, 3] [nM] | IC50 [2] [nM]
1 | COC(=O)Nc1ccc2c(-c3nc(N[C@@H]4CCC[C@H](N)C4)ncc3C(F)(F)F)c[nH]c2c1Br [Example T-22] | 50 to 500 | > 500 | > 500 | > 500 | 
2 | CC(=O)Nc1ccc2c(-c3nc(N[C@H]4CCCNC4)ncc3C(F)(F)F)c[nH]c2c1 [Example T-10] | < 50 | > 500 | > 500 | > 500 | 
3 | COC(=O)Nc1ccc2c(-c3nc(N[C@H]4CCCNC4)ncc3C(F)(F)F)c[nH]c2c1C#N [Example T-27] | < 50 | > 500 | > 500 | > 500 | 
4 | COC(=O)Nc1ccc2c(-c3nc(N[C@H]4CC[C@@H](C)NC4)ncc3C(F)(F)F)c[nH]c2c1OC [Example T-140] | 50 to 500 | > 500 | > 500 | > 500 | 
5 | O=C(Nc1ccc2c(-c3nc(N[C@H]4CCCNC4)ncc3C(F)(F)F)c[nH]c2c1Br)C1CC1 [Example T-08] | < 50 | > 500 | > 500 | > 500 | 
6 | COC(=O)Nc1ccc2c(-c3nc(NC4C5CCNC54)ncc3C(F)(F)F)c[nH]c2c1Br (centres unmarked) [Example T-26] | 50 to 500 | > 500 | > 500 | > 500 | 
7 | COC(=O)Nc1ccc2c(-c3nc(N[C@H]4CCCNC4)ncc3C(F)(F)F)c[nH]c2c1C(F)F [Example T-155] | < 50 | > 500 | > 500 | > 500 | 
8 | COC(=O)Nc1ccc2c(-c3nc(N[C@H]4CCC(C)(C)NC4)ncc3C(F)(F)F)c[nH]c2c1C(F)(F)F [Example T-35] | < 50 | > 500 | > 500 | > 500 | 
9 | COC(=O)Nc1ccc2c(-c3nc(N[C@H]4CCC[C@H](N)C4)ncc3C(F)(F)F)c[nH]c2c1Br [Example T-20] | 50 to 500 | > 500 | > 500 | > 500 | 
10 | COC(=O)Nc1ccc2c(-c3nc(N[C@H]4CC[C@@H](C)NC4)ncc3C(F)(F)F)c[nH]c2c1Cl [Example T-146] | 50 to 500 | > 500 | > 500 | > 500 | 
11 | COC(=O)Nc1ccc2c(-c3nc(N[C@H]4CC[C@@H](C)NC4)ncc3C(F)(F)F)c[nH]c2c1C1CC1 [Example T-130] | 50 to 500 | > 500 | > 500 | > 500 | 
12 | COC(=O)Nc1ccc2c(-c3nc(N[C@@H]4[C@@H]5CNC[C@@H]54)ncc3C(F)(F)F)c[nH]c2c1Br [Example T-25] | 50 to 500 | > 500 | > 500 | > 500 | 
13 | COC(=O)Nc1ccc2c(-c3nc(N[C@H]4CCC(C)(C)NC4)ncc3Cl)c[nH]c2c1OC(F)(F)F [Example T-96] | < 50 | > 500 | > 500 | > 500 | 
14 | COC(=O)Nc1ccc2c(-c3nc(N[C@H]4CCC5(CC5)NC4)ncc3C(F)(F)F)c[nH]c2c1OC(F)F [Example T-154] | < 50 | > 500 | > 500 | > 500 | 
15 | COC(=O)N(C)c1ccc2c(-c3nc(N[C@H]4CCCNC4)ncc3C(F)(F)F)c[nH]c2c1Br [Example T-102] | < 50 | > 500 | > 500 | > 500 | 
16 | COC(=O)Nc1ccc2c(-c3nc(N[C@H]4CCC5(CC5)NC4)ncc3C(F)(F)F)c[nH]c2c1C(F)(F)F [Example T-100] | < 50 | > 500 | > 500 | > 500 | 
17 | CC(C)OC(=O)Nc1ccc2c(-c3nc(N[C@H]4CCCNC4)ncc3C(F)(F)F)c[nH]c2c1Br [Example T-44] | < 50 | > 500 | > 500 | > 500 | 
18 | COC(=O)Nc1ccc2c(-c3nc(N[C@H]4CCC(C)(C)NC4)ncc3C(F)(F)F)c[nH]c2c1S(=O)(=O)C(C)C [Example T-64] | < 50 | > 500 | > 500 | > 500 | 
19 | CN1CCC[C@H](Nc2ncc(C(F)(F)F)c(-c3c[nH]c4cc(N5CCCC5=O)ccc34)n2)C1 [Example T-05] | < 50 | > 500 | > 500 | > 500 | 
20 | COC(=O)Nc1ccc2c(-c3nc(N[C@H]4CCCNC4)ncc3C(F)(F)F)c[nH]c2c1S(=O)(=O)C(C)C [Example T-63] | < 50 | > 500 | > 500 | > 500 | 
21 | COC(=O)Nc1ccc2c(-c3nc(N[C@H]4CCC(C)(C)NC4)ncc3Cl)c[nH]c2c1CC(F)(F)F [Example T-86] | < 50 | > 500 | > 500 | > 500 | 
22 | COC(=O)N(C)c1ccc2c(-c3nc(N[C@H]4CCCNC4)ncc3C(F)(F)F)c[nH]c2c1OC(F)F [Example T-165] | < 50 | > 500 | > 500 | > 500 | 

Row | Compound | IC50 [1] [nM] | IC50 (CDK2/Cyclin El) [nM] | IC50 (CDK9/Cyclin Tl) [nM] | IC50 [2, 3] [nM] | IC50 [2] [nM]
23 | COC(=O)Nc1ccc2c(-c3nc(N[C@H]4CCC[C@@H]4N)ncc3C(F)(F)F)c[nH]c2c1Br [Example T-67] | < 50 | > 500 | > 500 | > 500 | 
24 | CCOC(=O)Nc1ccc2c(-c3nc(N[C@H]4CCC(C)(C)NC4)ncc3C(F)(F)F)c[nH]c2c1C(C)(F)F [Example T-153] | < 50 | > 500 | > 500 | > 500 | 
25 | O=C1CCCCN1c1ccc2c(-c3nc(N[C@H]4CCCNC4)ncc3C(F)(F)F)c[nH]c2c1Br [Example T-03] | < 50 | > 500 | > 500 | > 500 | 
26 | COC(=O)Nc1ccc2c(-c3nc(N[C@H]4CCC(C)(C)NC4)ncc3C(F)(F)F)c[nH]c2c1C1CC1(F)F (some centres unmarked) [Example T-105] | < 50 | > 500 | > 500 | > 500 | 
27 | COC(=O)Nc1ccc2c(-c3nc(N[C@H]4CCC(C)(C)NC4)ncc3C(F)(F)F)c[nH]c2c1C(C)=O [Example T-134] | < 50 | > 500 | > 500 | > 500 | 
28 | COC(=O)Nc1ccc2c(-c3nc(N[C@H]4CCC(C)(C)NC4)ncc3C(F)(F)F)c[nH]c2c1OC(F)(F)F [Example T-109] | < 50 | > 500 | > 500 | > 500 | 
29 | CCOc1c(NC(=O)OC)ccc2c(-c3nc(N[C@H]4CCCNC4)ncc3C(F)(F)F)c[nH]c12 [Example T-138] | < 50 | > 500 | > 500 | > 500 | 
30 | COC(=O)Nc1ccc2c(-c3nc(N[C@H]4CCCNC4)ncc3C(F)(F)F)c[nH]c2c1-c1cnn(C)c1 [Example T-68] | < 50 | > 500 | > 500 | > 500 | 
31 | COC(=O)Nc1ccc2c(-c3nc(N[C@H]4CCC(C)NC4)ncc3C(F)(F)F)c[nH]c2c1C1CC1 (some centres unmarked) [Example T-129] | 50 to 500 | > 500 | > 500 | > 500 | 
32 | CCOC(=O)Nc1ccc2c(-c3nc(N[C@H]4CCC(C)(C)NC4)ncc3C(F)(F)F)c[nH]c2c1Cl [Example T-82] | < 50 | > 500 | > 500 | > 500 | 
33 | COC(=O)Nc1ccc2c(-c3nc(O[C@H]4CCCNC4)ncc3C(F)(F)F)c[nH]c2c1Br [Example T-02] | 50 to 500 | > 500 | > 500 | > 500 | 
34 | COC(=O)Nc1ccc2c(-c3nc(N[C@H]4CCC5(CC5)NC4)ncc3C(F)(F)F)c[nH]c2c1C(C)(F)F [Example T-137] | < 50 | > 500 | > 500 | > 500 | 
35 | CN[C@@H]1C[C@H]2O[C@@](C)([C@@H]1OC)n1c3ccccc3c3c4c(c5c6ccccc6n2c5c31)C(=O)NC4 [Staurosporine, reference compound] |  |  |  |  | > 500
36 | O=C1CCCN1c1ccc2c(-c3nc(N[C@H]4CCNC4)ncc3C(F)(F)F)c[nH]c2c1Br [Example T-47] | 50 to 500 |  |  |  | 
37 | COC(=O)Nc1ccc2c(-c3nc(N[C@H]4CCCN(C)C4)ncc3C(F)(F)F)c[nH]c2c1C(F)(F)F [Example T-111] | < 50 |  |  |  | 
38 | COC(=O)N(C)c1ccc2c(-c3nc(N[C@H]4CCCNC4)ncc3C(F)(F)F)c[nH]c2c1OC [Example T-166] | < 50 |  |  |  | 
39 | COC(=O)Nc1ccc2c(-c3nc(NC4CNC5CC5C4)ncc3C(F)(F)F)c[nH]c2c1Cl (centres unmarked) [Example T-126] | < 50 |  |  |  | 
40 | C#Cc1c(NC(=O)OC)ccc2c(-c3nc(N[C@H]4CCC(C)(C)NC4)ncc3C(F)(F)F)c[nH]c12 [Example T-90] | < 50 |  |  |  | 
41 | CCN[C@H]1CCC[C@@H]1Nc1ncc(C(F)(F)F)c(-c2c[nH]c3c(Br)c(NC(=O)OC)ccc23)n1 [Example T-115] | < 50 |  |  |  | 
42 | COC(=O)Nc1ccc2c(-c3nc(N[C@H]4CC=C(C)NC4)ncc3C(F)(F)F)c[nH]c2c1Cl [Example T-148] | 50 to 500 |  |  |  | 
43 | COC(=O)Nc1ccc2c(-c3nc(N[C@H]4CC[C@H](C)NC4)ncc3C(F)(F)F)c[nH]c2c1OC [Example T-141] | 50 to 500 |  |  |  | 
44 | COC(=O)Nc1ccc2c(-c3nc(N[C@@H]4CC[C@H](N)C4)ncc3C(F)(F)F)c[nH]c2c1Br [Example T-55] | > 500 |  |  |  | 
